Assay [1] deals with T1, PGM3 (N-Acetylglucosamine-phosphate Mutase) (Homo sapiens, UniProt O95394).
T1 sequence (O95394 1-542): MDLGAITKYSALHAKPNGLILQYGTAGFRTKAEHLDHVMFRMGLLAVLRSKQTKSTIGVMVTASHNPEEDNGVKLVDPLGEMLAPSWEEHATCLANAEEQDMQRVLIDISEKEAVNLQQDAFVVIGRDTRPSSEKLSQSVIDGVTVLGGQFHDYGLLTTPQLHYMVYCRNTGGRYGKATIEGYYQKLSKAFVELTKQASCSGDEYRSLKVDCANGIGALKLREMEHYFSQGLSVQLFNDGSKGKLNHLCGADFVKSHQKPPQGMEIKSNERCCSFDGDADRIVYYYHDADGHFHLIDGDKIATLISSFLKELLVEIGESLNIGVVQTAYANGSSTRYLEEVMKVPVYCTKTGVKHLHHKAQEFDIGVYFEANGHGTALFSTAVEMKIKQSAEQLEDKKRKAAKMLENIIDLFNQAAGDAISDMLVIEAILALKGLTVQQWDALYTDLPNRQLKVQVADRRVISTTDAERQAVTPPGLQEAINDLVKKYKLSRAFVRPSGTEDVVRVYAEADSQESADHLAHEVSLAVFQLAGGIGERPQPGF
Put plainly: CETSA, Western blot (cell extract). The following applies: 30 min RT incubation of extract, heated 3 min at 49-70 °C or isothermal at 58 °C; prodrug tested, possible conversion to FR051 in lysate not excluded. For orientation: In western blotting, separated proteins are transferred to a membrane and probed.

In assay [2] the target is T1, PGM3 (N-Acetylglucosamine-phosphate Mutase). Put plainly: ITDRF-CETSA, Western blot (cell extract). Type of assay: biochemical. More on the design: endogenous full-length protein in MDA-MB-231 soluble extract (freeze-thaw), detected by Western blot. The following applies: 30 min RT incubation of extract, heated 3 min at 58 °C; natural substrate.

The text below walks through data of article PMC5841296, “Inhibition of the Hexosamine Biosynthetic Pathway by targeting PGM3 causes breast cancer growth arrest and apoptosis” (Cell Death & Disease, 2018).

In the case of `CC(=O)OC[C@H]1O[C@@H]2OC(C)=N[C@@H]2[C@@H](OC(C)=O)[C@@H]1OC(C)=O` [FR054, 2-methyl-(3,4,6-tri-O-acetyl-1,2-dideoxy-α-D-glucopyrano)-[2,1-d]-2-oxazoline], in assay [1], the CETSA entry is “FR054 markedly increased the accumulation of PGM3 in the soluble fraction”.

In the case of `CC(=O)N[C@H]1C(O)O[C@H](COP(=O)(O)O)[C@@H](O)[C@@H]1O` (some centres unmarked) [GlcNAc-6-P], the “ITDRF CETSA” value in assay [2] is given as “more potent binding than the natural substrate GlcNAc-6-P”.
